For one molecule, Activity and inhibition results are on record in ChEMBL document CHEMBL5584334, “Discovery of a Covalent Inhibitor of Pro-Caspase-1 Zymogen Blocking NLRP3 Inflammasome Activation and Pyroptosis” (J Med Chem, 2024).

Series [1] relates to Mus musculus. Kind of series: Anti-inflammatory activity in MSU/C18:0 free fatty acid induced Kunming mouse model of gouty arthritis assessed as reduction in joint swelling at 5 to 20 mg/kg, ip preadministered with compound for 30 mins followed by MSU/C18:0 free fatty acid injection and measured after 24 hrs. The note with it: dose 5-20 mg/kg, time 24.5 hrs. The format is functional, organism-based.

The subject of series [2] is J774.A1. Kind of series: Binding affinity to pro-caspase 1 in mouse J774.A1 cells assessed as increase in protein stability incubated for 30 mins by CETSA. Type of series: cell-based. The note with it: dose 1-100 µM.
Series [3] deals with Mus musculus. The series is described as follows: Anti-inflammatory activity in MSU/C18:0 free fatty acid induced Kunming mouse model of gouty arthritis assessed as effect on pro-caspase-1 expression at 5 to 20 mg/kg, ip preadministered with compound for 30 mins followed by MSU/C18:0 free fatty acid injection and measured after 24 hrs by Western blotting analysis. The format is functional, organism-based. The note with it: dose 5-20 mg/kg, time 24.5 hrs. For orientation: In western blotting, separated proteins are transferred to a membrane and probed.

Series [4] has as its system J774.A1. Kind of series: Inhibition of pyroptosis in mouse J774.A1 cells assessed as reduction in cleaved GSDMD expression at 0.5 to 2 uM pretreated with LPS for 3 hrs followed by compound addition in presence of nigericin by Western blotting analysis. The format is functional, cell-based. The note with it: dose 0.5-2 µM.
The species named for series [5] is Mus musculus. The series is described as follows: Inhibition of pain perception in MSU/C18:0 free fatty acid induced wild type mouse measured upto 24 hrs. Type of series: functional, organism-based.
For series [6], the system named is THP-1. The series is described as follows: Inhibition of p20 fragment of IL-1beta protein expression in LPS/ATP stimulated human THP-1 cells supernatant by Western blotting analysis. Type of series: functional, cell-based.
In series [7] the test system is THP-1. The series is described as follows: Effect on pro-1L-1beta protein expression in LPS/MSU stimulated human THP-1 cells supernatant by Western blotting analysis. Type of series: functional, cell-based.
Series [8] concerns the target T1, Caspase-1 (Mus musculus) (UniProt P29452).
T1 sequence (whole entry): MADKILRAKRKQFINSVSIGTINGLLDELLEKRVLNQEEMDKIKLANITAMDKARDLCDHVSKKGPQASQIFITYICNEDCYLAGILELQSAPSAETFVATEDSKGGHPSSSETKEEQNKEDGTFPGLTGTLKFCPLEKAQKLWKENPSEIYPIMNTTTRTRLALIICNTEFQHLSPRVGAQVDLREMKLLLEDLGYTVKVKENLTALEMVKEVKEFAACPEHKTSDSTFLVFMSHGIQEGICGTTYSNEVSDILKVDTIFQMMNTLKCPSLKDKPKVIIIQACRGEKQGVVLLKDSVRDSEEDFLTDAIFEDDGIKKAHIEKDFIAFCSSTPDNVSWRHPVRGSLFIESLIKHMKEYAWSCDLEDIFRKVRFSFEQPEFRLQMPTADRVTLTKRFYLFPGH
Kind of series: Irreversible binding affinity to caspase-1 in LPS-induced mouse J774.A1 cells assessed as reduction in IL-1beta level at 0.5 to 2 uM pretreated with LPS for 3 hrs followed by compound addition for 30 mins prior to compound washout then nigericin addition for 1 hr by ELISA. Type of series: cell-based. The note with it: dose 0.5-2 µM. On the technique in general: ELISA stands for enzyme-linked immunosorbent assay.

Series [9] has as its system THP-1. Kind of series: Inhibition of p20 fragment of IL-1beta protein expression in LPS/nigericin stimulated human THP-1 cells supernatant at 0.5 to 2 uM by Western blotting analysis. The format is functional, cell-based. The conditions noted are these: dose 0.5-2 µM.
Series [10] has as its system J774.A1. The series is described as follows: Effect on ASC oligomerization in mouse J774.A1 cells at 2 uM pretreated with LPS for 3 hrs prior to compound addition followed by nigericin stimulation. Type of series: functional, cell-based.
A short description of series [11]: Acute toxicity in Kunming mouse assessed as liver damage at 100 mg/kg, ip administered for 14 days. The format is organism-based. The conditions noted are these: in vivo, 336 h, time 14 day.
Series [12] concerns J774.A1. The series is described as follows: Inhibition of pyroptosis in mouse J774.A1 cells assessed as reduction in number of annexin V and PI positive cells pretreated with LPS for 3 hrs followed by compound addition in presence of nigericin by flow cytometry analysis. Type of series: functional, cell-based.
For series [13], the system named is THP-1. The series is described as follows: Inhibition of p20 fragment of caspase 1 protein expression in LPS/ATP stimulated human THP-1 cells supernatant by Western blotting analysis. Type of series: functional, cell-based.
In series [14] the test system is J774.A1. The series is described as follows: Downregulation of inhibitor kappa B-alpha phosphorylation in mouse J774.A1 cells at 0.5 to 2 uM preincubated for 30 mins followed by LPS addition and measured after 2 hrs by Western blotting analysis. The format is functional, cell-based. The note with it: dose 0.5-2 µM, time 2.5 hrs.
The species named for series [15] is Mus musculus. Kind of series: Inhibition of pain perception in MSU/C18:0 free fatty acid induced Casp1 knockout mouse measured upto 24 hrs. Type of series: functional, organism-based.
Series [16] addresses NACHT, LRR and PYD domains-containing protein 3 (Mus musculus) (UniProt Q8R4B8). Kind of series: Inhibition of NLRP3 inflammasome activation in LPS primed Casp1 knockout mouse BMDM cells transfected with caspase-1 C284A mutant assessed as reduction in IL-1beta release at 2 uM preincubated for 30 mins followed by nigericin stimulation. The format is cell-based.
In series [17] the test system is J774.A1. Kind of series: Inhibition of ROS production in LPS/nigericin stimulated mouse J774.A1 cells. Type of series: functional, cell-based.
The target of series [18] is T1, Caspase-1 (Mus musculus). Kind of series: Binding affinity to caspase-1 in LPS-induced mouse J774.A1 cells assessed as reduction in IL-1beta level at 0.5 uM preincubated with compound followed by nigericin addition. Type of series: cell-based. The note with it: time 3-24 hrs, TDE = time-dependent effect.
Series [19] deals with J774.A1. Kind of series: Inhibition of pro-caspase 1 to RIP2 interaction in LPS stimulated mouse J774.A1 cells at 1 uM by immunoprecipitation method. The format is cell-based.
For series [20], the system named is J774.A1. Kind of series: Downregulation of p65 phosphorylation in mouse J774.A1 cells at 0.5 to 2 uM preincubated for 30 mins followed by LPS addition and measured after 2 hrs by Western blotting analysis. The conditions noted are these: dose 0.5-2 µM, time 2.5 hrs. The format is functional, cell-based.
Series [21] concerns Caspase-1 (Homo sapiens), P29466 [C270A]. Kind of series: Inhibition of recombinant caspase-1 C270A mutant (unknown origin) at 100 uM relative to control.
A further series relates to HEK293T. Kind of series: Inhibition of recombinant caspae-1 C244A mutant (unknown origin) to GSDMD (unknown origin) interaction expressed in HEK293T cells. The format is cell-based. The note with it: Homo sapiens.
Series [22] has as its system Caspase-1 (Homo sapiens), P29466 [C244A]. Kind of series: Inhibition of recombinant caspase-1 C244A mutant (unknown origin) at 100 uM relative to control.
In a further series the test system is BMDM. Kind of series: Effect on pro caspase-11 expression in mouse BMDM cells at 0.5 to 2 uM pretreated with pam3CSK4 for 3 hrs followed by compound addition for 30 mins prior to cytosolic LPS stimulation for 16 hrs by ELISA. The format is functional, cell-based. The conditions noted are these: dose 0.5-2 µM, time 16.5 hrs.

Activity calls are given as the source filed them. The rule behind the calls is not given here.

Chain of Caspase-1 (Homo sapiens), P29466 [C244A] (P29466 whole entry C244A): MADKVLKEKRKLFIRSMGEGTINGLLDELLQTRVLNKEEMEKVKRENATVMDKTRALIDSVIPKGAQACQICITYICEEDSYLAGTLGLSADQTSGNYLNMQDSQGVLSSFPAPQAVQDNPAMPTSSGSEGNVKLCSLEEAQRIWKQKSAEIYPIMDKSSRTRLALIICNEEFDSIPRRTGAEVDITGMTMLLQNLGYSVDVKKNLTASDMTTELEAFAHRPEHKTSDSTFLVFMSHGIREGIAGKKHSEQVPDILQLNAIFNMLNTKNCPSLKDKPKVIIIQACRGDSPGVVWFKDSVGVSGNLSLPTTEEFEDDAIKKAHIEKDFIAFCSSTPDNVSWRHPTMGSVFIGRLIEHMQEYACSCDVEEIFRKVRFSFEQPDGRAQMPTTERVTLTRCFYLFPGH
Chain of NACHT, LRR and PYD domains-containing protein 3 (Mus musculus) (Q8R4B8 whole entry, the tested form may be a part): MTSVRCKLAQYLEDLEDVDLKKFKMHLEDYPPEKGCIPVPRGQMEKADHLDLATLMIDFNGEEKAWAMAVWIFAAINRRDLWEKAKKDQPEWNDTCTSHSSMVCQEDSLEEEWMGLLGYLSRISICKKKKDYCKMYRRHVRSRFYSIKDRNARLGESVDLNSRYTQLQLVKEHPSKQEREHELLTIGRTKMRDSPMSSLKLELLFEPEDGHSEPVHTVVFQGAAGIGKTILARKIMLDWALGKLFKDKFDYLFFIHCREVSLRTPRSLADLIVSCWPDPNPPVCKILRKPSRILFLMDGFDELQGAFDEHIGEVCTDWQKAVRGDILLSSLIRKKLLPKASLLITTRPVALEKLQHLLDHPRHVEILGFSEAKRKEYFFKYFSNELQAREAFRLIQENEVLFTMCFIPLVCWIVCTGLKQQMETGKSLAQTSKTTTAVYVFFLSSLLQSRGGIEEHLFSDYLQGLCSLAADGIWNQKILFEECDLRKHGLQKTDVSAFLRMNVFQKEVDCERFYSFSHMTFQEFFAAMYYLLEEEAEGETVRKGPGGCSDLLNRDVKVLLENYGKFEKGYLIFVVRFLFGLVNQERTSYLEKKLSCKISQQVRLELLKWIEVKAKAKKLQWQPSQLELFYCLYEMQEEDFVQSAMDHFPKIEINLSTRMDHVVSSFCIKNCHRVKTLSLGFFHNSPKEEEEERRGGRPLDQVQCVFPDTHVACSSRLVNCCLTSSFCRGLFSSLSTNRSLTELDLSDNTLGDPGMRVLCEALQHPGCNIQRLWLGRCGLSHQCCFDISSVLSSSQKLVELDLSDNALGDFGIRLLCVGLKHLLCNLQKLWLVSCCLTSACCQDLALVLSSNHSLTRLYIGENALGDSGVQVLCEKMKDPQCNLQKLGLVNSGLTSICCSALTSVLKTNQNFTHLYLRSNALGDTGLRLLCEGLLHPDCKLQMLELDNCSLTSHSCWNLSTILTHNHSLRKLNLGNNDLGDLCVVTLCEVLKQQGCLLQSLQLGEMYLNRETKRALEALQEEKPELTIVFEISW
Chain of Caspase-1 (Homo sapiens), P29466 [C270A] (P29466 whole entry C270A): as the sequence (P29466 whole entry C244A) above, with A244C, C270A counted along it

For `COc1ccc2c(c1)[C@]1(C=C[C@H](N=C=S)C[C@H]1C(=O)OC(C)(C)C)C(=O)N2C(=O)OCc1ccccc1`, the result in the series with Mus musculus [1], on Caspase-1 (Mus musculus) [8], with J774.A1 [14] and with J774.A1 [20] was Active. Besides, the figures for the Activity result (with J774.A1 [2]; in series [11]; at Caspase-1 (Mus musculus) [18]) were “Dose-Dependent Effect”, “Non-Toxic” and “Tde”, respectively. In addition, the result in the series with Mus musculus [3], in the series on THP-1 [7] and in the series on BMDM was inactive. For the same molecule, the inhibition entry in the series with J774.A1 [4], in the series filed under Mus musculus [5], in the series with THP-1 [6], in the series on THP-1 [9], in the series with J774.A1 [10] and in the series on J774.A1 [12] was “Active” each time. Also, the inhibition entry with THP-1 [13], in the series on J774.A1 [19] and with HEK293T was “Active” throughout. Besides, the inhibition result (in the series filed under Mus musculus [15]; in series [16]; with J774.A1 [17]; in [21]; in series [22]) was “inactive” each time.
